Where two headings read alike, the source gives them in different places. Blank lines part the entries; values can stand above or below the molecule they belong to.
Assays:
Assay in all cases: Cell viability (CellTiterGlo, 72 h), Example 1
Type in all cases: cell-based
C2BBe1 = details: Homo sapiens, single agent
Description: (§1) The colorectal cancer cell lines SW1417, COLO 205, LS411N, HT-29, RKO, OUMS-23, SW620, LoVo, SW480, SW837, COLO-678, LS123-NCI—H747, HCT-15, HCT116, DLD-1, T84, SW948, LS180, GP2d, HuTu 80, CW-2, SW48, NCI—H716, C2Bbe1, SNU—C1 and KM12 are obtained from the American Type Culture Collection (ATCC) and maintained in their respective culture medium as specified by the provider. These colorectal cancer cell lines have the following mutation status:
(§2) For assessment of combination effects, cells are seeded into 384-well plates at 500 cells/well and incubated overnight. The contents of the compound master plates are pre-diluted with 1:200 (1 μL compound solution to 200 μL cell […] culture medium containing 10% fetal clf serum) before transferring 5 μL of this pre-dilution to the cell plates containing 20 μL cell culture medium, to achieve the targeted final compound concentrations as well as a vehicle (DMSO) concentration of 0.09%.
(§3) Effects of single agents as well as their checkerboard combinations on cell viability are assessed after 72 hours of incubation at 37° C./5% CO2 by quantification of cellular ATP levels (CellTiterGlo, Promega) using 25 μL reagent/well and n=2 repliate plates per condition. The number/viability of cells at the time of compound addition was likewise assessed and used to estimate the population doubling time of the particular cell line. Single agent IC50s are calculated using standard four-parametric curve fitting (SLFit, model 205). Potential synergistic interactions between compound combinations are assessed using the Excess Inhibition 2D matrix according to the Loewe additivity model and are reported as Synergy Score. In addition, compound combinations are assessed by combination index analysis derived from isobologram graphs at 50% inhibition, and are reported as best combination index (CI), which corresponds to the lowest value on the isobologram. All synergy calculations are performed using CHALICE software (Lehár et al, Nat Biotechnol. (July 2009), 27(4): […]).

COLO-678 = details: Homo sapiens, single agent
Description: as §1, §2, §3

COLO205 = details: Homo sapiens, COLO 205, single agent
Description: as §1, §2, §3

DLD-1 = details: Homo sapiens, single agent
Description: as §1, §2, §3

GP2d = details: single agent
Description: as §1, §2, §3

HCT 116 = details: Homo sapiens, HCT-116, 72 h
Description: as §1, §2, §3

HT-29 = details: Homo sapiens, HT-29, 72 h
Description: as §1, §2, §3

KM12 = details: Homo sapiens, single agent
Description: as §1, §2, §3

LS 180 = details: Homo sapiens, LS180, single agent
Description: as §1, §2, §3

LS411N = details: Homo sapiens, LS-411N, single agent
Description: as §1, §2, §3

LoVo = details: Homo sapiens, single agent
Description: as §1, §2, §3

NCI-H716 = details: Homo sapiens, single agent
Description: as §1, §2, §3

NCI-H747 = details: Homo sapiens, single agent
Description: as §1, §2, §3

OUMS-23 = details: single agent
Description: as §1, §2, §3

RKO = details: Homo sapiens, single agent
Description: as §1, §2, §3

SW480 = details: Homo sapiens, single agent
Description: as §1, §2, §3

SW620 = details: Homo sapiens, SW-620, single agent
Description: as §1, §2, §3

SW837 = details: Homo sapiens, single agent
Description: as §1, §2, §3

SW948 = details: Homo sapiens, duplicate data points and dose response display some scatter, single agent
Description: as §1, §2, §3

IC50 (COLO-678; read-out: Cmpd. A IC50): > 10800 nM | IC50 (COLO205; read-out: Cmpd. A IC50): > 10800 nM | IC50 (DLD-1; read-out: Cmpd. A IC50): > 10800 nM | IC50 (HCT 116; HCT 116*, repeat experiment performed at end of study, single agent, read-out: Cmpd. A IC50): 8320 nM | IC50 (HCT 116; HCT 116, single agent, read-out: Cmpd. A IC50): 9420 nM | IC50 (HT-29; HT-29*, repeat experiment performed at end of study, single agent, read-out: Cmpd. A IC50): 4280 nM | IC50 (HT-29; HT-29, single agent, read-out: Cmpd. A IC50): 5200 nM | IC50 (LoVo; read-out: Cmpd. A IC50): 8660 nM | IC50 (NCI-H716; read-out: Cmpd. A IC50): > 10800 nM | IC50 (NCI-H747; read-out: Cmpd. A IC50): 6210 nM | IC50 (SW480; read-out: Cmpd. A IC50): 9350 nM | IC50 (SW620; read-out: Cmpd. A IC50): > 10800 nM | IC50 (SW837; read-out: Cmpd. A IC50): 7280 nM | IC50 (SW948; read-out: Cmpd. A IC50): 1190 nM
Compound: Cc1nc(NC(=O)N2CCC[C@H]2C(N)=O)sc1-c1ccnc(C(C)(C)C(F)(F)F)c1 [COMPOUND A, (S)-pyrrolidine-1,2-dicarboxylic acid 2-amide 1-({4-methyl-5-[2-(2,2,2-trifluoro-1,1-dimethyl-ethyl)-pyridin-4-yl]-thiazol-2-yl}-amide)]
IC50 (C2BBe1; read-out: Cmpd. A IC50): 9200 nM | IC50 (GP2d; read-out: Cmpd. A IC50): 698 nM | IC50 (KM12; read-out: Cmpd. A IC50): > 10800 nM | IC50 (LS 180; read-out: Cmpd. A IC50): 5080 nM | IC50 (LS411N; read-out: Cmpd. A IC50): 8670 nM | IC50 (OUMS-23; read-out: Cmpd. A IC50): > 10800 nM | IC50 (RKO; read-out: Cmpd. A IC50): 6730 nM

IC50 (COLO-678; read-out: Cmpd. B IC50): 1710 nM | IC50 (COLO205; read-out: Cmpd. B IC50): 34.4 nM | IC50 (DLD-1; read-out: Cmpd. B IC50): > 2700 nM | IC50 (HCT 116; HCT 116*, repeat experiment performed at end of study, single agent, read-out: Cmpd. B IC50): 735 nM | IC50 (HCT 116; HCT 116, single agent, read-out: Cmpd. B IC50): 881 nM | IC50 (HT-29; HT-29*, repeat experiment performed at end of study, single agent, read-out: Cmpd. B IC50): 66.5 nM | IC50 (HT-29; HT-29, single agent, read-out: Cmpd. B IC50): 84 nM | IC50 (LoVo; read-out: Cmpd. B IC50): 148 nM | IC50 (NCI-H716; read-out: Cmpd. B IC50): > 2700 nM | IC50 (NCI-H747; read-out: Cmpd. B IC50): 153 nM | IC50 (SW480; read-out: Cmpd. B IC50): 2030 nM | IC50 (SW620; read-out: Cmpd. B IC50): 26.9 nM | IC50 (SW837; read-out: Cmpd. B IC50): 557 nM | IC50 (SW948; read-out: Cmpd. B IC50): 89.8 nM
Compound: Cn1cnc2c(F)c(Nc3ccc(Br)cc3F)c(C(=O)NOCCO)cc21 [COMPOUND B, 6-(4-bromo-2-fluorophenylamino)-7-fluoro-3-methyl-3H-benzoimidazole-5-carboxylic acid (2-hydroxyethoxy)-amide]
IC50 (C2BBe1; read-out: Cmpd. B IC50): 1580 nM | IC50 (GP2d; read-out: Cmpd. B IC50): 756 nM | IC50 (KM12; read-out: Cmpd. B IC50): 339 nM | IC50 (LS 180; read-out: Cmpd. B IC50): 143 nM | IC50 (LS411N; read-out: Cmpd. B IC50): 54.7 nM | IC50 (OUMS-23; read-out: Cmpd. B IC50): > 2700 nM | IC50 (RKO; read-out: Cmpd. B IC50): > 2700 nM

Source: US9675595B2, “Synergistic combinations of PI3K- and MEK-inhibitors” (Novartis AG, priority 2011, dated 2017)
